What is called IC50 is the midpoint of a concentration-inhibition curve.

Structures are written as SMILES.

The record followed here is publication PMC8599534, “Isoprenylated Flavonoids as Cav3.1 Low Voltage-Gated Ca^2+ Channel Inhibitors from Salvia digitaloides” (Natural Products and Bioprospecting, 2021).

The target in this assay is T1, Cav3.1 low voltage-gated Ca^2+ channel (Homo sapiens, UniProt O43497).
T1 construct: gene CACNA1G
In words: electrophysiology: peak-current inhibition in HEK […] cells expressing human Cav3.[…]. Type of assay: cell-based.

T1 sequence (O43497 whole entry): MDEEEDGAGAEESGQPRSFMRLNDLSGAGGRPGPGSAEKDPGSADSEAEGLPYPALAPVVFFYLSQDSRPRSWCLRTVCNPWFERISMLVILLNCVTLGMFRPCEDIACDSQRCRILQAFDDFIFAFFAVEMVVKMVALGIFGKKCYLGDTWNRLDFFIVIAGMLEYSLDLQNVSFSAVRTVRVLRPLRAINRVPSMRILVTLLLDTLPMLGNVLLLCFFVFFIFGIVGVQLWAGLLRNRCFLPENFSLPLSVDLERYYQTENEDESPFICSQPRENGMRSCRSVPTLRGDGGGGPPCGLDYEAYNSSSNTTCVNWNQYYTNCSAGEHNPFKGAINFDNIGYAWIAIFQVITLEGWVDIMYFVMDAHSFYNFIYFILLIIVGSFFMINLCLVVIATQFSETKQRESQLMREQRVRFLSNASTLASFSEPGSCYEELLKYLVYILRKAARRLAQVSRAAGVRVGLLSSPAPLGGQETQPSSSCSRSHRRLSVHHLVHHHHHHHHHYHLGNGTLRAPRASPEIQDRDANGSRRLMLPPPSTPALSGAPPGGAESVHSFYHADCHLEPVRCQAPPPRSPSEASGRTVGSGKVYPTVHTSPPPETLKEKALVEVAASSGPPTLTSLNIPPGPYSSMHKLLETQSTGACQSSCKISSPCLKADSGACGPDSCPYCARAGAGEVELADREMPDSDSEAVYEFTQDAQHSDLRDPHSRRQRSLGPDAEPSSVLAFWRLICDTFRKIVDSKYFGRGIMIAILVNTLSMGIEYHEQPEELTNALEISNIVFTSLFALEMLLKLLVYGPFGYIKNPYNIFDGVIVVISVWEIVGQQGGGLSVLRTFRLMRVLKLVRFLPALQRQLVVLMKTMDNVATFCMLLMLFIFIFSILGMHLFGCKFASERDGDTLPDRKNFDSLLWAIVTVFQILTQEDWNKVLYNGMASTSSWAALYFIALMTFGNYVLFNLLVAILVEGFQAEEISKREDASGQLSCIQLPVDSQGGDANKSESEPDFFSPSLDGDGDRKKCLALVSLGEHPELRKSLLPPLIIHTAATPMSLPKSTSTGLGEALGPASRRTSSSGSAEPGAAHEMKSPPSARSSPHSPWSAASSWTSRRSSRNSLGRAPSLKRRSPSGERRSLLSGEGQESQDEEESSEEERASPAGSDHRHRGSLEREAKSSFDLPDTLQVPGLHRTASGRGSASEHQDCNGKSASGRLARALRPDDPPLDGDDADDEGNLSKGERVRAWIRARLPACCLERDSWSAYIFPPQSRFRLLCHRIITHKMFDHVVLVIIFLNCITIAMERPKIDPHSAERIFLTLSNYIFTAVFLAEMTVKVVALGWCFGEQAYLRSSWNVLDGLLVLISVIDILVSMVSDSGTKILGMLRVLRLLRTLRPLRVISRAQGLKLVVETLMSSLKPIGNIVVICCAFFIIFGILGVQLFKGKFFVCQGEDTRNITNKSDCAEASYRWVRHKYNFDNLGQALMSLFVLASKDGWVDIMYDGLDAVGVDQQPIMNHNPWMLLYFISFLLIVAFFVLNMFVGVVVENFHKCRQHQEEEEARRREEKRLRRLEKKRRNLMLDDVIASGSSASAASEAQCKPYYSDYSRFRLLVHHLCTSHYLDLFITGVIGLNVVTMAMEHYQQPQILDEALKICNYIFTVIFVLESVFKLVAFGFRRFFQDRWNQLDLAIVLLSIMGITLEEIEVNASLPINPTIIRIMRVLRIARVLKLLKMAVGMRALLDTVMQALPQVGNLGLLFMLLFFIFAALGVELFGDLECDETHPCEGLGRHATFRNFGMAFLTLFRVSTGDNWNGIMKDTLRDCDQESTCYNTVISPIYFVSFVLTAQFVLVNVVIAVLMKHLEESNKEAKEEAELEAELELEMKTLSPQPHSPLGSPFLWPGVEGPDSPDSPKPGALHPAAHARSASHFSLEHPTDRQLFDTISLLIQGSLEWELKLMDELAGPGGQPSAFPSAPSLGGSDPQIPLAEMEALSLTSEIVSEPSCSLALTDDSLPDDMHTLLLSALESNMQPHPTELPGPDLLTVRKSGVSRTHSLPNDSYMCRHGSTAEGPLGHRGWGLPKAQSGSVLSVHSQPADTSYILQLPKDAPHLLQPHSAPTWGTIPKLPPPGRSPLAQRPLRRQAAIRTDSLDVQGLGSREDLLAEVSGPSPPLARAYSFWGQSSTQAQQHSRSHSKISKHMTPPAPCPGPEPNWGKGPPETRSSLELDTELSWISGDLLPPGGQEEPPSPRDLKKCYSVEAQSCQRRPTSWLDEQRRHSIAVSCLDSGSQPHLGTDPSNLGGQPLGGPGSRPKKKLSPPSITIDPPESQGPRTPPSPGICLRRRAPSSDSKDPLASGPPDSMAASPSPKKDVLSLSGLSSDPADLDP

In turn, `CC(C)=CCc1c([C@@H]2CC(=O)c3c(O)cc(O)c(CC=C(C)C)c3O2)cc2c(c1O)OC(C)(C)C=C2` [compound 2, 5,7,3′-trihydroxy-4′,5′-(2⁗,2⁗-dimethylpyran)-8,2′-di(3-methyl-2-butenyl)-(2S)-flavanone] had an IC50 of 3.5 µM.
